{"source": "patent US20200077655A1", "about": "“Use of an Acyclic Picolinamide Compound as a Fungicide for Control of Phytopathogenic Fungi in Orchard, Vineyard and Plantation Crops” (Dow AgroSciences LLC, priority 2017, published 2020)", "type_in_all_cases": "in vivo", "key": {"[1]": {"tested_on": "Cladosporium caryigenum (CLADCA)", "experiment": "Field assessment of two trials for pecan nut scab", "text": "A fungicidal treatment containing Compound I, applied in an SC formulation (MSO built-in) and tank mixed with an adjuvant (Agnique BP-420, 50% w/w at 0.2% v/v or Adsee C80W 80%), was sprayed on pecan trees (CYAIL, Desirable variety) from pre-flowering up to nut hardening at rates of 60, 120, 150, and 180 g ai/ha. The experimental plots were run with natural infestation. The treatment was part of an experimental trial designed as a randomized complete block (RCB) with four replications and a plot of approximately 40×40 ft, respectively. In one test, compound I was applied in 9 applications at water volume of 94-115 gallons per acre (gal/acre), using an Airblast sprayer (Hollowcone solid disc D10/45 nozzles) and pressurized at 46-54 psi. In the second test, compound I was applied in 8 applications at water volume of […] sprayer (solid stream nozzle) and pressurized at 300 psi. Both trials targeted 14 day intervals for applications.\nDisease evaluations were made as % incidence and % severity nuts in one test, 3 evaluations each, 9 applications, and as % incidence nuts and % severity leaves in the second test, 2 and 3 evaluations, respectively, 8 applications. Area under the disease progress curve (AUDPC) was calculated for each plot using the sets of recorded severity and incidence data. Relative AUDPC (% control based on AUDPC) was calculated as percent of the untreated control."}, "[2]": {"tested_on": "Botrytis (BOTRSP)", "experiment": "Field assessment of jacket rot in almond", "conditions": "MSO, almond nut infection", "method": "A fungicidal treatment containing Compound I, applied in an SC formulation (MSO-built in) was sprayed on almond trees (Prunus spp.) at bloom, petal fall and ca. 3 and 5 weeks after petal fall at rates of 60, 120, 150, and 180 g ai/ha. The experimental plots were conducted with a natural infestation of Botrytis. The treatments were part of an experimental trial designed as a randomized complete block (RCB) with three replications and a plot of approximately 18×18 ft. Compound I was applied at water volume of 100 gal/acre, using an Airblast sprayer. Nut infection (number of visual diseased nuts per total nuts counted per tree on whole plot) was assessed and recorded 17 days after application 4 (17 DAA4). Relative percent control was calculated as percent of the untreated control using Abbotts."}, "[3]": {"tested_on": "Tranzschelia discolor (TRANDI)", "experiment": "Field assessment of rust in almond", "conditions": "untreated 61.3", "text": "A fungicidal treatment containing Compound I, applied in an SC formulation (MSO-buit in) and tank mixed with an adjuvant (Adsee C80W 80%), was sprayed on almond trees (PRNDU, Butte variety) with 2 applications at growth stages BBCH67-69 and BBCH69-72 at rates of 60, 120, 150, and 180 g ai/ha. The experimental plots were run under natural infestation. The treatments were part of an experimental trial designed as a randomized complete block (RCB) with three replications and a plot of approximately 16×22 ft. Compound I was applied at water volume of 100 gal/acre, using a motorized backpack sprayer.\nPercent leaf incidence (calculated from number of visual diseased leaves per 50 leaves per one tree) was assessed and recorded at 105 days after application A (105 DAAA)."}, "[4]": {"tested_on": "Monilinia laxa (MONILA)", "experiment": "Field assessment on brown rot of flowers in stone fruits (apricots)", "conditions": "5% EC + Trycol, field grown apricots, protectant", "text": "A fungicidal treatment containing Compound I, applied in a 5% EC formulation and tank mixed with an adjuvant (Trycol, 50% w/w at 0.2% v/v), was sprayed twice during the flowering period on the plant canopy of apricots (PRNAR, Protici variety) at rates of 50, 100, and 150 grams of active ingredient per hectare (g ai/ha). The applications were done at 7 day intervals with disease inoculation at the last application (protectant). The treatment was part of an experimental trial designed as a randomized complete block with four replications and a plot of approximately 4.7×3.1 m, with compound I being applied using a MISTBLOW, Solo backpack applicator at a water volume of 500 L/ha. MONILA disease was evaluated on flowers on a sample of 10 pre-marked branches per tree. The number of infected flowers was counted and consequently the percent incidence was calculated. Visual infection was assessed three times during the trial at 10, 14 and 20 days after the second application. Area under the disease progress curve (AUDPC) was calculated for each plot using the sets of recorded severity data. Relative AUDPC (% control based on AUDPC) was calculated as percent of the nontreated control."}, "[5]": {"tested_on": "Podosphaera clandestina (PODOCL)", "experiment": "Field assessment of powdery mildew in cherry", "conditions": "cherry leaves, 14 DAA5", "text": "A fungicidal treatment containing Compound I, applied in an SC formulation (MSO built-in) and tank mixed with an adjuvant (Agnique BP-420, 50% w/w at 0.2% v/v or Adsee C80W 80%), was sprayed on cherry trees (PRNAV, Sentennial variety) at growth stage (mid petal fall, flowers fading, petals falling; BBCH 67-85) at rates of 60, 120, 150, and 180 g ai/ha. The experimental plots were run with natural infestation. The treatment was part of an experimental trial designed as a randomized complete block (RCB) with four replications and a plot of approximately 4×6 m. Compound I was applied at water volume of 1000 L/ha, using an Airblast sprayer.\nDisease severity (percentage of visual diseased foliage (leaf) on whole plot) and disease incidence were assessed 14 days after application 5 (14 DAA5). The disease infection was recorded. Disease was evaluated as percent of leaves with disease (incidence), percent diseased leaf area (severity, a disease index calculated (percent (%) incidence×percent (%) severity) and then percent (%) control was calculated using Abbotts from the disease index values. Results are given in Table 12."}, "[6]": {"conditions": "60 g ai/ha, Agnique BP420, 240 mL/ha"}, "[7]": {"conditions": "120 g ai/ha, Adsee C80W 80%, 300 g ai/ha"}, "[8]": {"conditions": "120 g ai/ha, Agnique BP420, 480 mL/ha"}, "[9]": {"conditions": "150 g ai/ha, Agnique BP420, 600 mL/ha"}, "[10]": {"conditions": "180 g ai/ha, Agnique BP420, 720 mL/ha"}}}
{"smiles": "COc1ccnc(C(=O)N[C@@H](C)C(=O)O[C@@H](C)C(c2ccc(F)cc2)c2ccc(F)cc2)c1OC(C)=O", "note": "[Compound I, (S)-1,1-bis(4-fluorophenyl)propan-2-yl (3-acetoxy-4-methoxypicolinoyl)-L-alaninate]", "values": [{"measurement": "Calc Percent Control of CLADCA (AUDPC)", "setting": "[1]; [6]", "result": 25.1, "unit": "%"}, {"measurement": "Calc Percent Control of CLADCA (AUDPC)", "setting": "[1]; 60 g ai/ha, MSO, 120 g ai/ha", "result": 29.8, "unit": "%"}, {"measurement": "Calc Percent Control of CLADCA (AUDPC)", "setting": "[1]; [7]", "result": 21.9, "unit": "%"}, {"measurement": "Calc Percent Control of CLADCA (AUDPC)", "setting": "[1]; [8]", "result": 28.8, "unit": "%"}, {"measurement": "Calc Percent Control of CLADCA (AUDPC)", "setting": "[1]; 120 g ai/ha, MSO, 240 g ai/ha", "result": 30.1, "unit": "%"}, {"measurement": "Calc Percent Control of CLADCA (AUDPC)", "setting": "[1]; [9]", "result": 35.0, "unit": "%"}, {"measurement": "Calc Percent Control of CLADCA (AUDPC)", "setting": "[1]; 150 g ai/ha, MSO, 300 g ai/ha", "result": 29.8, "unit": "%"}, {"measurement": "Calc Percent Control of CLADCA (AUDPC)", "setting": "[1]; [10]", "result": 32.5, "unit": "%"}, {"measurement": "Calc Percent Control of CLADCA (AUDPC)", "setting": "[1]; 180 g ai/ha, MSO, 360 g ai/ha", "result": 53.0, "unit": "%"}, {"measurement": "Calc Percent Control of BOTRSP 17 DAA4", "setting": "[2]; 60 g ai/ha, 120 g ai/ha", "result": 37.9, "unit": "%"}, {"measurement": "Calc Percent Control of BOTRSP 17 DAA4", "setting": "[2]; 120 g ai/ha, 240 g ai/ha", "result": 40.0, "unit": "%"}, {"measurement": "Calc Percent Control of BOTRSP 17 DAA4", "setting": "[2]; 150 g ai/ha, 300 g ai/ha", "result": 51.6, "unit": "%"}, {"measurement": "Calc Percent Control of BOTRSP 17 DAA4", "setting": "[2]; 180 g ai/ha, 360 g ai/ha", "result": 53.5, "unit": "%"}, {"measurement": "Percent Visual Leaf Incidence of TRANDI 89 DAAB", "setting": "[3]; 60 g ai/ha, MSO, 120 g ai/ha", "result": 13.3, "unit": "%"}, {"measurement": "Percent Visual Leaf Incidence of TRANDI 89 DAAB", "setting": "[3]; 120 g ai/ha, Adsee C80W, 300 g ai/ha", "result": 11.3, "unit": "%"}, {"measurement": "Percent Visual Leaf Incidence of TRANDI 89 DAAB", "setting": "[3]; 120 g ai/ha, MSO, 240 g ai/ha", "result": 9.3, "unit": "%"}, {"measurement": "Percent Visual Leaf Incidence of TRANDI 89 DAAB", "setting": "[3]; 150 g ai/ha, MSO, 300 g ai/ha", "result": 6.0, "unit": "%"}, {"measurement": "Percent Visual Leaf Incidence of TRANDI 89 DAAB", "setting": "[3]; 180 g ai/ha, MSO, 360 g ai/ha", "result": 6.0, "unit": "%"}, {"measurement": "% Control (AUDPC) from flower incidence assessments", "setting": "[4]; 50 g ai/ha", "result": "B (51-75)"}, {"measurement": "% Control (AUDPC) from flower incidence assessments", "setting": "[4]; 100 g ai/ha", "result": "A (76-100)"}, {"measurement": "% Control (AUDPC) from flower incidence assessments", "setting": "[4]; 150 g ai/ha", "result": "A (76-100)"}, {"measurement": "Calc Percent Control of PODOCL", "setting": "[5]; [6]", "result": 64.6, "unit": "%"}, {"measurement": "Calc Percent Control of PODOCL", "setting": "[5]; 60 g ai/ha, MSO, 120 g ai/ha", "result": 63.3, "unit": "%"}, {"measurement": "Calc Percent Control of PODOCL", "setting": "[5]; [7]", "result": 44.4, "unit": "%"}, {"measurement": "Calc Percent Control of PODOCL", "setting": "[5]; [8]", "result": 46.9, "unit": "%"}, {"measurement": "Calc Percent Control of PODOCL", "setting": "[5]; 120 g ai/ha, MSO, 240 g ai/ha", "result": 37.9, "unit": "%"}, {"measurement": "Calc Percent Control of PODOCL", "setting": "[5]; [9]", "result": 44.4, "unit": "%"}, {"measurement": "Calc Percent Control of PODOCL", "setting": "[5]; 150 g ai/ha, MSO, 300 g ai/ha", "result": 91.7, "unit": "%"}, {"measurement": "Calc Percent Control of PODOCL", "setting": "[5]; [10]", "result": 48.7, "unit": "%"}, {"measurement": "Calc Percent Control of PODOCL", "setting": "[5]; 180 g ai/ha, MSO, 360 g ai/ha", "result": 89.1, "unit": "%"}]}
